This is an account of results in patent US5814634A, “Alkylenediamine derivative anti-ulcer drug and antibacterial drug” (Shiseido Co. Ltd., priority 1996, dated 1998).

Read-outs that look alike come from different tables or passages of the source.

The subject of series [1] is isolated gastric fundic gland. The series is described as follows: CAP: Acid Secretion Inhibition Test In Vitro ([14C]-aminopyrine uptake). Format: cell-based, rabbit (male Japanese White). The conditions noted are these: Oryctolagus cuniculus, 40 min, read-out: CAP: acid secretion inhibitory rate. On the procedure:
(§1) With respect to the gastric juice volume (VOL) and the total acid output (TAO), the effects obtained when 100 mg/kg of the sample compound had been administered were expressed as their respective inhibitory rates (%) as follows: [formula] CAP: Acid Secretion Inhibition Test In Vitro i) Meaning
The acid secretion inhibitory activity in a cell level is studied. It can also be used for studying the mechanism of the effect.
ii-a) Preparation of isolated gastric fundus gland suspension
First, an isolated gastric fundic gland sample was prepared. […] Immediately thereafter, the stomach was removed and, after its pyloric and cardiac antrum were severed, incised along its greater curvature into two sheets. The gastric contents adhering to the mucosal surface was washed out with ice-cooled PBS (-) and then carefully washed therein. The gastric wall was spread on a cork board with its mucosal surface facing up and the feed and mucus thereon were completely removed with sterile gauze. The mucosa was separated therefrom by a spatula and then collected in ice-cooled PBS (-). After being washed twice with PBS (-), the mucosa was minced into 2-3 mm^3 pieces by scissors. These pieces were further washed twice with a nutrient solution. The nutrient solution comprises 132.4 mM of NaCl, 5.4 mM of KCl, 5 mM of Na2 HPO4.12H2 O, 1 mM of NaH2 PO4.2H2 O, 1.2 mM of MgSO4, 1 mM of CaCl2, 25 mM of HEPES, 2 mg/ml of glucose, and 1 mg/ml of BSA. Into 70 ml of the nutrient solution containing 1 mg/ml of collagenase, minced mucosal pieces were dispersed and intensely stirred in a conical flask with a stirrer at 37° C. for 40 to 60 minutes. During this period, 100% O2 was sprayed on the nutrient solution surface and the pH was appropriately measured such that it was immediately adjusted to pH 7.4, when the value was therebelow, with a base. The nutrient solution was added to the reaction solution so as to attain the total amount of about 200 ml. After being filtered through a mesh, the suspension was divisionally introduced into 50 ml centrifuge tubes and left for 15 minutes such that gastric fundic gland was deposited. The supernatant was repeatedly removed by an aspirator, dispersed in the nutrient solution, and then left such that the gastric fundic gland was washed three times. At this time, without using a pipette, the suspension was alternately introduced into two centrifuge tubes so as to effect dispersion. The number of cells was counted under microscope and adjusted to 1.6×10^6 cells/ml.
ii-b) [^14 C]-aminopyrine uptake test
Then, [^14 C]-aminopyrine uptake test was performed. After an Eppendorf tube was weighed, 10 μl (final concentration: 10^-5 M) of histamine dissolved in the above-mentioned nutrient solution, 10 μl (final concentration: 10^-5 M) of the test compound dissolved in DMSO, and 10 μl (final concentration: 0.05 μCi/ml) of [^14 C]-aminopyrine diluted with the nutrient solution were introduced therein and then 970 μl of the isolated gastric fundic gland suspension prepared above was added thereto. Subsequently, this mixture was shaken at 37° C. for 40 minutes at 125 cycles/minute. After being centrifuged for 30 minutes, 200 μl of its supernatant was collected into a mini-vial, while the rest was removed by an aspirator. The gland pellet was completely dried as the tube with its lid being opened was kept for one night in a drying oven at 80° C. and then the lid was closed and the weight was determined at room temperature. Then 100 μl of 1N KOH was added thereto and the tube with its lid being closed was treated at 60° C. for 1 to 2 hours so as to dissolve the pellet. Then, the contents thereof were transferred to a mini-vial. Into the mini-vial containing the supernatant or gland pellet, 4 ml of Atomlite™ was added and then the radioactivity was measured by a liquid scintillation counter. […]

Series [2] concerns stress ulcer. Briefly: WIS: Restraint and Water Immersion Stress-Induced Ulcer Inhibition Test. The conditions noted are these: 100 mg/kg oral, rats, water immersion stress 7 hours. It is filed as in vivo, rat (male Crj:SD or Slc:SD). The gist of the method:
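Fasted male SD rats (6–7 weeks, 5–8 per group) received compound orally at 100 mg/kg in 0.3% CMC-Na or 0.05% Tween 80; 10 min later, restraint with water immersion (21 °C) for 7 h. Summed glandular erosion length gave the ulcer index; inhibition (%) versus vehicle controls.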

Series [3] has as its system acid secretion in vivo. Briefly: VOL, TAO: Acid Secretion Inhibition Test In Vivo. Details: species or system rat (male Crj:Donryu). Conditions: 100 mg/kg oral, pylorus-ligated rats, histamine 30 mg/kg s.c. On the procedure:
The effect obtained when 100 mg/kg of the sample compound had been administered was expressed as ulcer formation inhibitory rate (%) as follows: [formula] VOL, TAO: Acid Secretion Inhibition Test In Vivo i) Meaning
Inhibitory effect on acid secretion in vivo is confirmed.
Male Crj:Donryu rats (7-week-old) were fasted overnight but allowed free access to water. In each group, 8 to 10 of these rats were used under urethane anesthesia (1.25 g/kg). The sample compound dissolved or suspended in an aqueous solution of 0.5% sodium carboxymethylcellulose or 0.05% Tween 80 was orally administered (100 mg/10 ml/kg). 30 minutes later, the abdomen of each was incised and the pylorus was ligated. 30 minutes after the ligation, 30 mg/kg of histamine dissolved in physiological saline was subcutaneously administered and, 3 hours thereafter, the rat was sacrificed with carbon dioxide. Immediately thereafter, each stomach was removed and the gastric contents were collected and each volume was determined. The total acid output was determined by titration of the gastric juice with 0.1N NaOH.
as §1

In series [4] the test system is Male Slc:ICR mice. The arrangement: species or system mouse (male Slc:ICR). The conditions noted are these: mouse, in vivo. On the procedure: AT: Single Dose Toxicity Pretest
Male Slc:ICR mice (5-week-old) were used. Each group has 3 to 5 mice and each mouse was fasted, but allowed free access to water, for 4 to 5 hours from 9 a.m. in the test day. Then, 2,000 mg/10 ml/kg of the sample compound dissolved or suspended in an aqueous solution of 0.5% sodium carboxymethyl cellulose was orally administered thereto. To a control, only the vehicle was administered. […] The body weight was measured before and after the fasting as well as at the same time everyday. The dead animals were immediately subjected to autopsy and their organs were observed microscopically. Also, the living animals were sacrificed with ether or carbon dioxide one week after the administration and then their organs were observed microscopically.
The toxicity at the single dose of 2,000 mg/kg of the sample compound was expressed as being classified into 5 levels.
5: Mortality rate is 0%; no toxicity is found at all both in behavior and organs.
4: Mortality rate is 0%; while no toxicity is found in organs, slight toxicity is observed in behavior and body weight increase.
3: While there is a dead animal (though not all the animals are dead), no toxicity is found in organs.
2: Regardless of whether there is a dead animal or not, toxicity is found in organs.
1: All the animals are dead.

The test system of series [5] is gastric corpus mucosa cells. The conditions noted are these: rabbit, gastric mucosal cells, 4 h, 100 µM.
The nature of series [6]: MTT: Cell Damaging and Protecting Effect Test. Conditions: rabbit, gastric mucosal cells.
The test system of series [7] is Helicobacter pyroli. Briefly: AHP: Antibacterial Activity Test Against Helicobacter pyroli (agar dilution MIC). Format: cell-based, Helicobacter pyroli NCTC 11637. Conditions: for MIC: Helicobacter, NCTC11637, 168 h, HP NCTC 11637, brucella agar with 5% horse blood, 7 days, read-out: AHP: minimum inhibitory concentration (MIC). On the procedure:
Antibacterial Activity Test Against Helicobacter pyroli i) Meaning The minimum inhibitory concentration (MIC) against Helicobacter pyroli (microaerophilic gram-negative bacterium which is supposed to deeply involve in pathogenesis, relapse, and recrudescence of ulcer, referred to as "HP" in the following) is measured so as to find out compounds which have antimicrobial activity against Helicobacter pyroli. ii) Method MICs were determined by the agar dilution method. The stock culture (-80° C.) of HP NCTC 11637 was thawed and cultured on tripticase soy agar supplemented with 5% sheep blood at 37° C. in an atmosphere of 5% O2, 10% CO2, and 85% N2. Grown colonies were transferred to the same plate and precultured for 3 days under the same condition. […] 10 μl of the bacterial suspension for inoculation (about 10^3 cfu) was inoculated on this plate and cultured for 7 days under the same condition as that of preculture.

Series [8] is described as follows: in vitro. The conditions noted are these: rabbit, gastric mucosal cells.
The mark [9] stands for this setting: 10^-5 M compound, 10^-5 M histamine, rabbit isolated gastric fundic gland, 37° C., 40 minutes.

With `CC(C)=CCC/C(C)=C/COc1ccc(C(=O)NCCN2CCCCC2)cc1` [Example 3], in series [1] (setting [9]), the inhibition at 10 µM was determined as 100%. In addition, the “WIS: ulcer formation inhibitory rate” value in series [2] is on record as 79%. Besides, in series [3], the “TAO: total acid output inhibitory rate” value is given as 85% and the “VOL: gastric juice volume inhibitory rate” value stood at 68%. For the same molecule, the “AT: toxicity at single dose, 5 levels” value in series [4] is reported as 4.

For `CC(C)=CCCC(C)=CCOc1ccc(C(=O)NCCN2CC(C)OC(C)C2)cc1` (stereo not drawn) [Example 34], in series [2], the “WIS: ulcer formation inhibitory rate” value is given as 38%. In addition, in series [5], the “MTT: cell damaging rate” value is reported as 14%.

As for `CC(C)=CCC/C(C)=C/COc1ccc(C(=O)NCCN2CCN(CC(=O)N3CCCC3)CC2)cc1` [Example 55], the inhibition at 10 µM in series [1] amounted to 99.2%. This molecule had a cytotoxicity at 4 h, 100 µM in series [6] of 27%.

Regarding `CC(C)=CCC/C(C)=C/COc1ccc(C(=O)NCCN2CCN(c3nc4ccccc4s3)CC2)cc1` [Example 59], the MIC in series [7] was under 3.13 µg/mL. For the same molecule, the “antibacterial activity against Helicobacter pyroli” value in series [7] (result in words) is “having an antibacterial activity against Helicobacter pyroli”. Moreover, the inhibition at 10 µM in series [1] (setting [9]) was 93%. In series [2], the “WIS: ulcer formation inhibitory rate” value amounted to 47%. In series [8], this molecule registered a cytotoxicity at 4 h, 100 µM of 7%.

Consider `CC(C)Cc1cc(C(=O)NCCN2CCN(CC(C)C)CC2)ccc1OCc1ccc(F)cc1` [Example 62], for which the MIC in series [7] is under 3.13 µg/mL. Further, the inhibition at 10 µM in series [1] (setting [9]) was 102%. Moreover, the “WIS: ulcer formation inhibitory rate” value in series [2] is recorded as 77%. In addition, the “AT: toxicity at single dose, 5 levels” value in series [4] is 3.
